Measured values as given in patent publication US6797700B2, “Antithrombotic azacycloalkylalkanoyl peptides and pseudopeptides” (Aventis Pharmaceuticals, Inc., priority 1993, dated 2004).
Like-named read-outs stand apart in the source and are kept apart here.

Experiments:
[1] = tested on: fixed activated platelets; test: Platelet Aggregation Assay (fixed-activated platelets, fibrinogen-mediated aggregation); type: cell-based; settings: aggregation initiated by human fibrinogen 250 μg/ml, read-out: Inhibition of Fixed Platelet Aggregation (IC50 μM)
Description: Preparation of Fixed-Activated Platelets
Platelets are isolated from human platelet concentrates using the gel-filtration technique as described by Marguerie, G. A., et al., J. Biol. Chem. 254, 5357-5363 (1979) and Ruggeri, Z. M., et al., J. Clin. Invest. 72, 1-12 (1983). The platelets are suspended at a concentration of 2×10^8 cells/ml in a modified calcium-free Tyrode's buffer containing 127 mM sodium chloride, 2 mM magnesium chloride, 0.42 mM Na2HPO4, 11.9 mM NaHCO3, 2.9 mM KCl, 5.5 mM glucose, 10 mM HEPES, at a pH of 7.35 and 0.35% human serum albumin (HSA). These washed platelets are activated by addition of human a-thrombin at a final concentration of 2 units/ml, followed by thrombin inhibitor I-2581 at a final concentration of 40 μM. To the activated platelets is added paraformaldehyde to a final concentration of 0.50% and this incubated at room temperature for 30 minutes. The fixed activated platelets are then collected by centrifugation at 650×g for 15 minutes. The platelet pellets are washed four times with the above Tyrode's-0.35% HSA buffer and resuspended to 2×10^8 cells/ml in the same buffer.
Platelet Aggregation Assay
The fixed activated platelets are incubated with a selected dose of the compound to be tested for platelet aggregation inhibition for one minute and aggregation initiated by addition of human fibrinogen to a final concentration of 250 μg/ml. A platelet aggregation profiler Model PAP-4 is used to record the platelet aggregation. The extent of inhibition of aggregation is expressed as the percentage of the rate of aggregation observed in the absence of inhibitor.

[2] = tested on: ADP-induced platelet aggregation in canine platelet rich plasma; test: Inhibition of ADP-Induced ex-vivo Platelet Aggregation after oral administration; type: in vivo, mongrel dogs; settings: Canis lupus familiaris, Platelet, dog, dose 5 mg/kg
Description: Inhibition of ADP-Induced ex-vivo Platelet Aggregation
Control blood samples are obtained 5-10 minutes prior to administration of the test compound in mongrel dogs weighing from 10 to 20 kg. The compound is administered intragasticly, via aqueous gavage, or orally, via gelatin capsule. Blood samples (5 ml) are then obtained at 30 minute intervals for 3 hours, and at 6, 12, and 24 hours after dosing. Each blood sample is obtained by venipuncture of the cephalic vein and is collected directly into a plastic syringe containing one part 3.8% trisodium citrate to nine parts blood.
Ex vivo Canine Platelet Aggregation
The blood samples are centrifuged at 1000 rpm for 10 minutes to obtain platelet rich plasma (PRP). After removal of the PRP, the sample is centrifuged for an additional 10 minutes at 2000 rpm to obtain platelet poor plasma (PPP). Platelet count in the PRP is determined by using a Coulter Counter (Coulter Electronics, Hialeah, Fla.). If the concentration of platelets in the PRP is greater than 300,000 platelets/μl, then the PRP is diluted with PPP to adjust the platelet count to 300,000 platelets/μl. Aliquots of PRP (250 μl) are then placed in siliconized glass cuvettes (7.25×55 mm, Bio/Data Corp, Horsham, Pa.). Epinephrine (final concentration of 1 μM) is then added to the PRP, which is incubated for one minute at 37° C. A stimulator of platelet aggregation, ADP at a final concentration of 10 μM, is then added to the PRP. Platelet aggregation is monitored spectrophotometrically utilizing a light transmission aggregometer (Bio/Data Platelet Aggregation Profiler, Model PAP-4, Bio/Data Corp, Horsham, Pa.). For compound to be tested, the rate of change (slope) of light transmittance and the maximum light transmittance (maximum aggregation) is recorded in duplicate. Platelet aggregation data are reported as the percent decrease (mean±SEM) in slope or maximum aggregation as compared to data obtained from control PRP, which is prepared from blood samples obtained prior to administration of the test compound.

[3] = 1 h after dosing, read-out: % Inhibition of ex-vivo Platelet Aggregation After Oral Administration, 1 h
[4] = 3 h after dosing, read-out: % Inhibition of ex-vivo Platelet Aggregation After Oral Administration, 3 h

Compound	IC50 ([1]; Homo sapiens, Platelet)	further results
CCN(CC(=O)NC(CC(=O)O)C(=O)NC(CCC1CCCCC1)C(N)=O)C(=O)CCCC1CCNCC1 (centres unmarked) [Example 25, N-[N-[N-(4-(piperidin-4-yl)butanoyl)-N-ethylglycyl]aspartyl]-b-cyclohexylmethylalanine amide]	0.046 µM	–
CCN(CC(=O)NC(CC(=O)O)C(=O)NC(CCCC1CCCCC1)C(=O)O)C(=O)CCCC1CCNCC1 (centres unmarked) [Example 31, N-[N-[N-(4-(piperidin-4-yl)butanoyl)-N-ethylglycyl]aspartyl]-a-cyclohexylpropylglycine]	0.053 µM	–
CCN(CC(=O)NC(CC(=O)O)C(=O)NC(CC1CCC(C2CCCCC2)CC1)C(=O)O)C(=O)CCCC1CCNCC1 (centres unmarked) [Example 28, N-[N-[N-(4-(piperidin-4-yl)butanoyl)-N-ethylglycyl]aspartyl]-b-(4-cyclohexyl)cyclohexylalanine]	0.048 µM	–
CCN(CC(=O)NC(CC(=O)O)C(=O)N[C@H](CC1CCCCC1)C(=O)O)C(=O)CCCC1CCNCC1 (stereo partly drawn) [Example 20, N-[N-[N-(4-(piperidin-4-yl)butanoyl)-N-ethylglycyl]aspartyl]-b-cyclohexyl-D-alanine]	1.37 µM	–
CCN(CC(=O)NC(CC(=O)O)C(=O)NC(C(=O)O)C(C)C)C(=O)CCC1CCNCC1 (centres unmarked) [Example 9, N-[N-[N-(3-(piperidin-4-yl)propanoyol)-N-ethylglycyl]aspartyl]valine]	0.77 µM	–
CCN(CC(=O)NC(CC(=O)O)C(=O)NC(CC1CCCC2CCCCC21)C(=O)O)C(=O)CCCC1CCNCC1 (centres unmarked) [Example 21, N-[N-[N-(4-(piperidin-4-yl)butanoyl)-N-ethylglycyl]aspartyl]-b-decahydronaphth-1-ylalanine]	–	IC50 ([1]; fixed activated human platelets): 0.055 µM
CCN(CC(=O)NC(CC(=O)O)C(=O)NC(CC1CCC2CCCCC2C1)C(=O)O)C(=O)CCCC1CCNCC1 [Example 17, N-[N-[N-(4-(piperidin-4-yl)butanoyl)-N-ethylglycyl]aspartyl]-L-b-cis-decahydronaphth-2-ylalanine]	0.096 µM	–
CCN(CC(=O)NC(CC(=O)O)C(=O)NC(CC12CC3CC(CC(C3)C1)C2)C(=O)O)C(=O)CCCC1CCNCC1 (centres unmarked) [Example 26, N-[N-[N-(4-(piperidin-4-yl)butanoyl)-N-ethylglycyl]aspartyl]-b-adamant-1-ylalanine]	0.029 µM	–
CCN(CC(=O)NC(CC(=O)O)C(=O)NC(CC1CCCCCC1)C(=O)O)C(=O)CCCC1CCNCC1 (centres unmarked) [Example 29, N-[N-[N-(4-(piperidin-4-yl)butanoyl)-N-ethylglycyl]aspartyl]-b-cycloheptylalanine]	0.032 µM	–
CCN(CC(=O)NC(CC(=O)O)C(=O)NC(C(=O)O)C1CCCCC1)C(=O)CCCC1CCNCC1 [Example 13, N-[N-[N-(4-(piperidin-4-yl)butanoyl)-N-ethylglycyl]aspartyl]-L-a-cyclohexyl glycine]	–	inhibition at 5 mg/kg [2, 3]: 100%; inhibition at 5 mg/kg [2, 4]: 100%; inhibition at 5 mg/kg ([2]; 6 h after dosing, read-out: % Inhibition of ex-vivo Platelet Aggregation After Oral Administration, 6 h): 25%
CCN(CC(=O)NC(CC(=O)O)C(=O)OCCCC12CC3CC(CC(C3)C1)C2)C(=O)CCCC1CCNCC1 (centres unmarked) [Example 18, 3-Adamant-1-ylpropyl-N-[N-(4-(piperidin-4-yl)butanoyl)-N-ethylglycyl]aspartate]	0.104 µM	–
CCNC(=O)C(CC1CCCCC1)NC(=O)C(CC(=O)O)NC(=O)CN(CC)C(=O)CCCC1CCNCC1 (centres unmarked) [Example 22, N-[N-[N-(4-(piperidin-4-yl)butanoyl)-N-ethylglycyl]aspartyl]-b-cyclohexylalanine ethyl amide]	0.09 µM	–
CCN(CC(=O)NC(CC(=O)O)C(=O)NC(CC1CCCC1)C(=O)O)C(=O)CCCC1CCNCC1 (centres unmarked) [Example 33, N-[N-[N-(4-(piperidin-4-yl)butanoyl)-N-ethylglycyl]aspartyl]-b-cyclopentylalanine]	0.047 µM	–
CCN(CC(=O)NC(CC(=O)O)C(=O)NC(Cc1ccc2ccccc2c1)C(=O)O)C(=O)CCCC1CCNCC1 [Example 8, N-[N-[N-(4(piperidin-4-yl)butanoyl)-N-ethylglycyl]aspartyl]-L-b-naphth-2-yl alanine]	–	inhibition at 5 mg/kg [2, 3]: 30%; inhibition at 5 mg/kg [2, 4]: < 20%
